The text below walks through data of patent US20210147343A1 (priority 2018, published 2021).

For experiment [1], the target named is T1, kappa opioid receptor (KOR) (Homo sapiens, UniProt P41145).
T1 construct: host or cells: CHO-K1
Kind of experiment: cell-based. Conditions: kOR cAMP IC50, CHO-K1 cells expressing kOR; after activation with dynorphin B. The text has this: KOR cAMP Antagonist Assay

Experiment [2] relates to Male Sprague-Dawley rats. Put plainly: Hot plate assay. The format is in vivo. The following applies: rat, SC, hotplate 52 degrees centigrade, FIG. 1. The procedure:
Male Sprague-Dawley rats weighing 275-300 grams were used in the study, n=8-10 per group. Animals are injected SC with 0.9% normal saline solution. At 15, 45, and 80 min after the injection, animals were placed onto a hotplate set to 52 degrees centigrade, and baseline latency is recorded (baseline latency=average time to 2nd withdrawal response consisting of either a lick of a rear paw, shaking a rear paw, backwards walking or jumping). A day later animals were injected SC with test compounds either in vehicle solution, or with a mix of compounds in solution. Next the test latency was recorded (test latency=time to withdrawal on the hotplate measured at 15, 45, 80, 120, 180 and 240 min using the procedure described). Times were then converted to % maximum possible effect (% MPE)=(test_latecy−baseline_latency)/(30 sec-baseline_latency); where 30 sec is the cutoff where the animal is removed if no response ifs observed as it is the time point at which injury is expected to occur.

In experiment [3] the target is mu opioid receptor (MOR) (Homo sapiens, UniProt P35372). Kind of experiment: MOR cAMP agonist assay.
mu opioid receptor (MOR), sequence (P35372 whole entry): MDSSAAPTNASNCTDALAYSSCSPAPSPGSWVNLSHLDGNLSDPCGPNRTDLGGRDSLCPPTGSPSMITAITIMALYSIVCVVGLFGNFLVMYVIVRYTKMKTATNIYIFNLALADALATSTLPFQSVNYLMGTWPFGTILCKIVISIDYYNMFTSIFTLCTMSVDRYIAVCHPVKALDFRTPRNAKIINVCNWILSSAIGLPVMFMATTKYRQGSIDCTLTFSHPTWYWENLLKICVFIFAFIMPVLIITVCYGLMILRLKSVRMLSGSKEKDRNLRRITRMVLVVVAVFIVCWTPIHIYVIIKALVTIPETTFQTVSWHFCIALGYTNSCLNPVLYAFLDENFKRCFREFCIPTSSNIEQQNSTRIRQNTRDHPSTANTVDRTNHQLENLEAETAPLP

Each structure is given as a SMILES string.

T1 sequence (P41145 whole entry): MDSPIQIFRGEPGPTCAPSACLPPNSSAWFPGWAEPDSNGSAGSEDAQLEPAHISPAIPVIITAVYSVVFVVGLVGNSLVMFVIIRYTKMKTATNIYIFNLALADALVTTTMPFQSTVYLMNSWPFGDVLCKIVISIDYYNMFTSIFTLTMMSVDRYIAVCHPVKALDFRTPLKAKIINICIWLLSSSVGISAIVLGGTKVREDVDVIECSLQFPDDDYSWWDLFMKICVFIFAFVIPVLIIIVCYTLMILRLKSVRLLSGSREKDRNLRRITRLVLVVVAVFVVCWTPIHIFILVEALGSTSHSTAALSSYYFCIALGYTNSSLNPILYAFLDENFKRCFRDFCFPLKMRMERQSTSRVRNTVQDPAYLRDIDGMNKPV

In general, IC50 refers to the midpoint of a concentration-inhibition curve. A lower IC50 goes with inhibition by little substance. Usually EC50 stands for the concentration that produces a half-maximal response. Take `Cc1cc(O)ccc1C[C@@H](CNC(=O)[C@@H]1C[C@@]1(C)c1ccccc1)N(C)C` [Compound B-56, (1R,2R)—N—((S)-2-(dimethylamino)-3-(4-hydroxy-2-methylphenyl)propyl)-2-methyl-2-phenylcyclopropane-1-carboxamide]: in experiment [1], the IC50 was less than 0.1 µM. Moreover, in experiment [2], the “analgesic activity in the hotplate test (time to exhibit a withdrawal response)” value was “analgesic”. This molecule also came in with an EC50 in experiment [3] of less than 0.1 µM.
